# Measured values published in US4542018A, “Teichomycin A2 pure single factors 1, 2, 3, 4 and 5 and method for their production” (Gruppo Lepetit S.p.A., priority 1982, dated 1985).
# Experiments:
# Streptococcus pyogenes = experiment: In vitro antibacterial activity (MIC), two-fold dilution in microtiter system; assay type: cell-based; settings: 7 tested strains, clinical isolates, Todd-Hewitt broth, 18-24 h at 37° C.
# Experimental: (§1) Penassay broth (Difco) and Todd-Hewitt broth (Difco) were used for staphylococci and streptococci respectively. Overnight broth cultures were diluted so that the final inoculum was about 10^3 colony forming units/ml.
# Streptococcus faecalis = experiment: as above; assay type: cell-based; settings: 5 tested strains, clinical isolates, Todd-Hewitt broth, 18-24 h at 37° C.
# Experimental: as §1
# Streptococcus agalactiae = experiment: as above; assay type: cell-based; settings: 1 tested strain, clinical isolate, Todd-Hewitt broth, 18-24 h at 37° C.
# Experimental: as §1
# Staphylococcus aureus = experiment: as above; assay type: cell-based; settings: 5 tested strains, clinical isolates, Penassay broth, 18-24 h at 37° C.
# Experimental: as §1
# [1] = tested on: Staphylococcus epidermidis; experiment: as above; assay type: cell-based; settings: 4 tested strains, clinical isolates, Penassay broth, 18-24 h at 37° C.
# Experimental: as §1
# Streptococcus mitis = experiment: as above; assay type: cell-based; settings: 1 tested strain, clinical isolate, Todd-Hewitt broth, 18-24 h at 37° C.
# Experimental: as §1
# Streptococcus pneumoniae = experiment: as above; assay type: cell-based; settings: 6 tested strains, clinical isolates, Todd-Hewitt broth, 18-24 h at 37° C.
# Experimental: as §1
# Streptococcus bovis = experiment: as above; assay type: cell-based; settings: 1 tested strain, clinical isolate, Todd-Hewitt broth, 18-24 h at 37° C.
# Experimental: as §1
# Streptococcus salivarius = experiment: as above; assay type: cell-based; settings: 1 tested strain, clinical isolate, Todd-Hewitt broth, 18-24 h at 37° C.
# Experimental: as §1
# Streptococcus sanguis = experiment: as above; assay type: cell-based; settings: 1 tested strain, clinical isolate, Todd-Hewitt broth, 18-24 h at 37° C.
# Experimental: as §1
# S. aureus ATCC 6538 = experiment: Microbiological potency by agar diffusion method, Teichomycin A2 complex as standard; assay type: cell-based; settings: 2.5-20 μg/ml, 37° C., 18 hours
# Experimental: In particular an adeguate amount of Teichomycin A2 factor 1, Teichomycin A2 factor 2, Teichomycin A2 factor 3, Teichomycin A2 factor 4, Teichomycin A2 factor 5 and Teichomycin A2 complex used as the standard is dissolved in dimethylformamide at a concentration of 2000 μg/ml. These solutions are further diluted using phosphate buffer 0.067 M pH 7.4 supplemented with 1% bovine serum in order to provide the following concentrations: 2.5, 5, 10, and 20 μg/ml.
# Filter paper discs are then soaked into the sample solutions and placed at regular intervals on the surface of agar plates seeded with a suspension of the test microorganism. The plates are incubated at 37° C. for 18 hours and then the diameter of the inhibition zones are measured. The data obtained are fed into a computer to calculate the potency of the individual factors relative to the complex.
# Gram-positive bacteria = experiment: In vitro antibacterial spectrum; assay type: cell-based
# Experimental: as §1
# Solubility = assay type: physicochemical; settings: for solubility in water: water at pH>7.0 or at pH<2
# S. pyogenes L 49 = experiment: In vivo antibacterial activity, experimental infection in mice; settings: s.c.
# Experimental: (§2) Teichomycin A2 factors 2,3,4 and 5 were tested in the experimental infections caused by S. pneumoniae and by S. pyogenes in mice. The experiments were carried out in comparison with Teichomycin A2 complex.
# S. pneumoniae L 44 = experiment: as above; settings: s.c.
# Experimental: as §2
structure (smiles),measurement,setting,value
CCCCC/C=C\CCC(=O)N[C@H]1[C@H](Oc2c3cc4cc2Oc2ccc(cc2Cl)[C@@H](O[C@@H]2O[C@H](CO)[C@@H](O)[C@H](O)[C@H]2NC(C)=O)[C@@H]2NC(=O)[C@H](NC(=O)[C@@H]4NC(=O)[C@H]4NC(=O)[C@@H](Cc5ccc(c(Cl)c5)O3)NC(=O)[C@H](N)c3ccc(O)c(c3)Oc3cc(O)cc4c3)c3ccc(O)c(c3)-c3c(O[C@H]4O[C@H](CO)[C@@H](O)[C@H](O)[C@@H]4O)cc(O)cc3[C@@H](C(=O)O)NC2=O)O[C@H](CO)[C@@H](O)[C@@H]1O [Teichomycin A2 factor 1],M.I.C.,Streptococcus pyogenes,0.05 to 0.1 µg/mL
same,M.I.C.,Streptococcus faecalis,0.2 to 0.4 µg/mL
same,M.I.C.,Streptococcus agalactiae,0.1 µg/mL
same,M.I.C.,Staphylococcus aureus,0.8 to 1.6 µg/mL
same,M.I.C.,[1],0.2 to 1.6 µg/mL
same,M.I.C.,Streptococcus mitis,0.025 µg/mL
same,M.I.C.,Streptococcus pneumoniae,0.1 to 0.2 µg/mL
same,M.I.C.,Streptococcus bovis,0.4 µg/mL
same,M.I.C.,Streptococcus salivarius,0.2 µg/mL
same,M.I.C.,Streptococcus sanguis,0.1 µg/mL
same,microbiological potency relative to the complex,S. aureus ATCC 6538,841 U/mg
same,in vitro antibacterial activity (spectrum),Gram-positive bacteria,mainly active against Gram-positive bacteria
same,"solubility in chloroform, benzene, n-hexane, acetonitrile, ethyl ether, acetone, ethyl acetate, carbon tetrachloride",Solubility,almost insoluble
same,"solubility in dimethylformamide, dimethylsulfoxide and propyleneglycol",Solubility,freely soluble
same,solubility in methanol and ethanol,Solubility,poorly soluble
same,solubility in methylcellosolve and glycerol,Solubility,slightly soluble
same,solubility in water,Solubility,freely soluble
CC(=O)N[C@H]1[C@H](O[C@@H]2c3ccc(c(Cl)c3)Oc3cc4cc(c3O[C@@H]3O[C@H](CO)[C@@H](O)[C@H](O)[C@H]3NC(=O)CCCCCCC(C)C)Oc3ccc(cc3Cl)C[C@H]3NC(=O)[C@H](N)c5ccc(O)c(c5)Oc5cc(O)cc(c5)[C@H](NC3=O)C(=O)N[C@H]4C(=O)N[C@H]3C(=O)N[C@@H]2C(=O)N[C@H](C(=O)O)c2cc(O)cc(O[C@H]4O[C@H](CO)[C@@H](O)[C@H](O)[C@@H]4O)c2-c2cc3ccc2O)O[C@H](CO)[C@@H](O)[C@@H]1O [Teichomycin A2 factor 2],M.I.C.,Streptococcus pyogenes,0.025 to 0.1 µg/mL
same,M.I.C.,Streptococcus faecalis,0.1 to 0.4 µg/mL
same,M.I.C.,Streptococcus agalactiae,0.1 µg/mL
same,M.I.C.,Staphylococcus aureus,0.8 to 1.6 µg/mL
same,M.I.C.,[1],0.1 to 1.6 µg/mL
same,M.I.C.,Streptococcus mitis,0.025 µg/mL
same,M.I.C.,Streptococcus pneumoniae,0.05 to 0.1 µg/mL
same,M.I.C.,Streptococcus bovis,0.4 µg/mL
same,M.I.C.,Streptococcus salivarius,0.2 µg/mL
same,M.I.C.,Streptococcus sanguis,0.1 µg/mL
same,microbiological potency relative to the complex,S. aureus ATCC 6538,1086 U/mg
same,in vitro antibacterial activity (spectrum),Gram-positive bacteria,mainly active against Gram-positive bacteria
same,"solubility in chloroform, benzene, n-hexane, acetonitrile, ethyl ether, acetone, ethyl acetate, carbon tetrachloride",Solubility,almost insoluble
same,"solubility in dimethylformamide, dimethylsulfoxide and propyleneglycol",Solubility,freely soluble
same,solubility in methanol and ethanol,Solubility,poorly soluble
same,solubility in methylcellosolve and glycerol,Solubility,slightly soluble
same,solubility in water,Solubility,freely soluble
same,ED50,S. pyogenes L 49,0.15 (0.13-0.18) mg/kg/day
same,ED50,S. pneumoniae L 44,0.28 (0.22-0.34) mg/kg/day
CCCCCCCCCC(=O)N[C@H]1[C@H](Oc2c3cc4cc2Oc2ccc(cc2Cl)[C@@H](O[C@@H]2O[C@H](CO)[C@@H](O)[C@H](O)[C@H]2NC(C)=O)[C@@H]2NC(=O)[C@H](NC(=O)[C@@H]4NC(=O)[C@H]4NC(=O)[C@H](Cc5ccc(c(Cl)c5)O3)NC(=O)[C@H](N)c3ccc(O)c(c3)Oc3cc(O)cc4c3)c3ccc(O)c(c3)-c3c(O[C@H]4O[C@H](CO)[C@@H](O)[C@H](O)[C@@H]4O)cc(O)cc3[C@@H](C(=O)O)NC2=O)O[C@H](CO)[C@@H](O)[C@@H]1O [Teichomycin A2 factor 3],M.I.C.,Streptococcus pyogenes,0.025 to 0.05 µg/mL
same,M.I.C.,Streptococcus faecalis,0.1 to 0.2 µg/mL
same,M.I.C.,Streptococcus agalactiae,0.05 µg/mL
same,M.I.C.,Staphylococcus aureus,0.4 to 0.8 µg/mL
same,M.I.C.,[1],0.2 to 0.8 µg/mL
same,M.I.C.,Streptococcus mitis,0.0125 µg/mL
same,M.I.C.,Streptococcus pneumoniae,0.05 to 0.1 µg/mL
same,M.I.C.,Streptococcus bovis,0.2 µg/mL
same,M.I.C.,Streptococcus salivarius,0.1 µg/mL
same,M.I.C.,Streptococcus sanguis,0.1 µg/mL
same,microbiological potency relative to the complex,S. aureus ATCC 6538,1131 U/mg
same,in vitro antibacterial activity (spectrum),Gram-positive bacteria,mainly active against Gram-positive bacteria
same,"solubility in chloroform, benzene, n-hexane, acetonitrile, ethyl ether, acetone, ethyl acetate, carbon tetrachloride",Solubility,almost insoluble
same,"solubility in dimethylformamide, dimethylsulfoxide and propyleneglycol",Solubility,freely soluble
same,solubility in methanol and ethanol,Solubility,poorly soluble
same,solubility in methylcellosolve and glycerol,Solubility,slightly soluble
same,solubility in water,Solubility,freely soluble
same,ED50,S. pyogenes L 49,0.13 (0.11-0.16) mg/kg/day
same,ED50,S. pneumoniae L 44,0.27 (0.23-0.32) mg/kg/day
CCC(C)CCCCCCC(=O)N[C@H]1[C@H](Oc2c3cc4cc2Oc2ccc(cc2Cl)[C@@H](O[C@@H]2O[C@H](CO)[C@@H](O)[C@H](O)[C@H]2NC(C)=O)[C@@H]2NC(=O)[C@H](NC(=O)[C@@H]4NC(=O)[C@H]4NC(=O)[C@@H](Cc5ccc(c(Cl)c5)O3)NC(=O)[C@H](N)c3ccc(O)c(c3)Oc3cc(O)cc4c3)c3ccc(O)c(c3)-c3c(O[C@H]4O[C@H](CO)[C@@H](O)[C@H](O)[C@@H]4O)cc(O)cc3[C@@H](C(=O)O)NC2=O)O[C@H](CO)[C@@H](O)[C@@H]1O (stereo partly shown) [Teichomycin A2 factor 4],M.I.C.,Streptococcus pyogenes,0.006 to 0.05 µg/mL
same,M.I.C.,Streptococcus faecalis,0.1 to 0.4 µg/mL
same,M.I.C.,Streptococcus agalactiae,0.1 µg/mL
same,M.I.C.,Staphylococcus aureus,0.2 to 0.8 µg/mL
same,M.I.C.,[1],0.2 to 0.8 µg/mL
same,M.I.C.,Streptococcus mitis,0.025 µg/mL
same,M.I.C.,Streptococcus pneumoniae,0.05 to 0.1 µg/mL
same,M.I.C.,Streptococcus bovis,0.4 µg/mL
same,M.I.C.,Streptococcus salivarius,0.05 µg/mL
same,M.I.C.,Streptococcus sanguis,0.05 µg/mL
same,microbiological potency relative to the complex,S. aureus ATCC 6538,1066 U/mg
same,in vitro antibacterial activity (spectrum),Gram-positive bacteria,mainly active against Gram-positive bacteria
same,"solubility in chloroform, benzene, n-hexane, acetonitrile, ethyl ether, acetone, ethyl acetate, carbon tetrachloride",Solubility,almost insoluble
same,"solubility in dimethylformamide, dimethylsulfoxide and propyleneglycol",Solubility,freely soluble
same,solubility in methanol and ethanol,Solubility,poorly soluble
same,solubility in methylcellosolve and glycerol,Solubility,slightly soluble
same,solubility in water,Solubility,freely soluble
CC(=O)N[C@H]1[C@H](O[C@@H]2c3ccc(c(Cl)c3)Oc3cc4cc(c3O[C@@H]3O[C@H](CO)[C@@H](O)[C@H](O)[C@H]3NC(=O)CCCCCCCC(C)C)Oc3ccc(cc3Cl)C[C@H]3NC(=O)[C@H](N)c5ccc(O)c(c5)Oc5cc(O)cc(c5)[C@H](NC3=O)C(=O)N[C@H]4C(=O)N[C@H]3C(=O)N[C@@H]2C(=O)N[C@H](C(=O)O)c2cc(O)cc(O[C@H]4O[C@H](CO)[C@@H](O)[C@H](O)[C@@H]4O)c2-c2cc3ccc2O)O[C@H](CO)[C@@H](O)[C@@H]1O [Teichomycin A2 factor 5],M.I.C.,Streptococcus pyogenes,0.006 to 0.05 µg/mL
same,M.I.C.,Streptococcus faecalis,0.1 to 0.4 µg/mL
same,M.I.C.,Streptococcus agalactiae,0.1 µg/mL
same,M.I.C.,Staphylococcus aureus,0.2 to 0.8 µg/mL
same,M.I.C.,[1],0.2 to 0.8 µg/mL
same,M.I.C.,Streptococcus mitis,0.025 µg/mL
same,M.I.C.,Streptococcus pneumoniae,0.05 to 0.1 µg/mL
same,M.I.C.,Streptococcus bovis,0.4 µg/mL
same,M.I.C.,Streptococcus salivarius,0.05 µg/mL
same,M.I.C.,Streptococcus sanguis,0.05 µg/mL
same,microbiological potency relative to the complex,S. aureus ATCC 6538,954 U/mg
same,in vitro antibacterial activity (spectrum),Gram-positive bacteria,mainly active against Gram-positive bacteria
same,"solubility in chloroform, benzene, n-hexane, acetonitrile, ethyl ether, acetone, ethyl acetate, carbon tetrachloride",Solubility,almost insoluble
same,"solubility in dimethylformamide, dimethylsulfoxide and propyleneglycol",Solubility,freely soluble
same,solubility in methanol and ethanol,Solubility,poorly soluble
same,solubility in methylcellosolve and glycerol,Solubility,slightly soluble
same,solubility in water,Solubility,freely soluble
same,ED50,S. pyogenes L 49,0.10 (0.098-0.13) mg/kg/day
same,ED50,S. pneumoniae L 44,0.13 (0.10-0.15) mg/kg/day
